Reference: PubChem BioAssay (NCI)
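Five compound concentrations were applied to cells in 96-well plates for 48 hours; endpoints were derived by simple linear interpolation of the resulting dose-response curve. At the TGI there is no net growth.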

Columns and labels:
Assay in all cases: NCI tumour cell line growth inhibition, 48 h
[1] = tested on: 786-0 renal
[2] = tested on: A498 renal
[3] = tested on: A549 NSCLC
[4] = tested on: ACHN renal
[5] = tested on: BT-549 breast
[6] = tested on: CAKI-1 renal
[7] = tested on: CCRF-CEM leukemia
[8] = tested on: COLO 205 colon
[9] = tested on: DU-145 prostate
[10] = tested on: EKVX NSCLC
[11] = tested on: HCC-2998 colon
[12] = tested on: HCT-116 colon
[13] = tested on: HCT-15 colon
[14] = tested on: HL-60(TB) leukemia
[15] = tested on: HOP-62 NSCLC
[16] = tested on: HOP-92 NSCLC
[17] = tested on: HS 578T breast
[18] = tested on: HT29 colon
[19] = tested on: IGROV1 ovarian
[20] = tested on: K-562 leukemia
[21] = tested on: KM12 colon
[22] = tested on: LOX IMVI melanoma
[23] = tested on: M14 melanoma
[24] = tested on: MALME-3M melanoma
[25] = tested on: MCF7 breast
[26] = tested on: MDA-MB-231 breast
[27] = tested on: MDA-MB-435
[28] = tested on: MDA-N
[29] = tested on: MOLT-4 leukemia
[30] = tested on: NCI-H226 lung
[31] = tested on: NCI-H23 lung
[32] = tested on: NCI-H460 lung
[33] = tested on: NCI-H522 lung
[34] = tested on: NCI/ADR-RES ovarian
[35] = tested on: OVCAR-3 ovarian
[36] = tested on: OVCAR-4 ovarian
[37] = tested on: OVCAR-5 ovarian
[38] = tested on: OVCAR-8 ovarian
[39] = tested on: PC-3 prostate
[40] = tested on: RPMI-8226 leukemia
[41] = tested on: RXF 393 renal
[42] = tested on: SF-268 CNS
[43] = tested on: SF-295 CNS
[44] = tested on: SF-539 CNS
[45] = tested on: SK-MEL-2 melanoma
[46] = tested on: SK-MEL-28 melanoma
[47] = tested on: SK-MEL-5 melanoma
[48] = tested on: SK-OV-3 ovarian
[49] = tested on: SN12C renal
[50] = tested on: SNB-19 CNS
[51] = tested on: SNB-75 CNS
[52] = tested on: SW-620 colon
[53] = tested on: T-47D breast
[54] = tested on: TK-10 renal
[55] = tested on: U251 CNS
[56] = tested on: UACC-257 melanoma
[57] = tested on: UACC-62 melanoma
[58] = tested on: UO-31 renal
[59] = tested on: SR leukemia

Measured: TGI

COc1cc(OCc2nc3ccccc3n3cccc23)cc(OC)c1OC
> 65.9 µM: [33]
> 80.4 µM: [34]
> 50.6 µM: [21]
48.2 µM: [14]
> 60.5 µM: [12]
25.4 µM: [7]
> 74.3 µM: [1]
> 63 µM: [36]
> 54.5 µM: [52]
> 72.3 µM: [57]
> 62.7 µM: [10]
9.35 µM: [47]
> 90.5 µM: [46]
> 74.4 µM: [24]
> 88.3 µM: [11]
> 60.9 µM: [35] | [56]
> 88.9 µM: [49]
52.4 µM: [30]
> 89.6 µM: [58]
> 78.3 µM: [23]
> 88.6 µM: [54]
23.8 µM: [20]
14.6 µM: [40]
14.3 µM: [29]
> 82.3 µM: [8]
37.6 µM: [25]
> 52.4 µM: [27]
not listed: [59]
> 100 µM: all other assays above

CSc1nc(C)c2c(n1)SCC2
not listed: [11] | [33] | [45]
> 10 µM: all other assays above

C=C1C(=O)OC2/C=C(\CO)C3OC3C3OC3(C)CC(OC(=O)/C(=C/C)CO)C12 (configuration not stated)
89 µM: [59]
65.4 µM: [20]
77.4 µM: [6]
84.3 µM: [29]
45.7 µM: [40]
68.6 µM: [24]
45.6 µM: [33]
not listed: [14]
> 100 µM: all other assays above

O=C(Nc1cccc2ccccc12)Nn1cnnc1
not listed: [1] | [26] | [34] | [41]
> 100 µM: all other assays above
